# According to patent US20100113506A1, “COMPOSITION FOR PREVENTING OR TREATING THROMBUS- OR EMBOLUS- ASSOCIATED DISEASE” (priority 2007, published 2010):
# How the values were obtained:
# [1] = tested on: platelet aggregation induced by ADP; experiment: ADP-induced platelet aggregation in PRP of orally dosed rabbits (ex vivo); design: species or system Japanese white rabbits; details: ADP 3 μM, clopidogrel 20 mg/kg single oral dose; for Aggregation suppressibility: EPA-E 300 mg/kg oral once a day 4 weeks, blood 2 h after clopidogrel; for Effect on maximum aggregation rate: vs control group, EPA-E 300 mg/kg oral 4 weeks
# Description: (§1) After the preliminary keeping, the rabbits were randomly divided into four groups, namely, control group, EPA-E group, clopidogrel group, and combination group. To the EPA-E group and the combination group, EPA-E was orally administered once a day for four weeks at a dose of 300 mg/kg. To the control group and the clopidogrel group, a 5% aqueous solution of gum arabic was orally administered instead of EPA-E. After the last EPA-E or gum arabic administration, the rabbits were fasted overnight, then clopidogrel was orally administered to the clopidogrel group and the combination group at a single dose of 20 mg/kg. To the control group and the EPA-E group, the 5% aqueous solution of gum arabic was orally administered instead of clopidogrel. Two hours after the clopidogrel administration, blood was sampled using a syringe containing citric acid in an amount of a tenth of the syringe volume, and the white blood cell count, red blood cell count, hemoglobin, hematocrit, and platelet count were measured on an automated hematology analyzer (type F-820 from Sysmex Corporation). The blood was centrifuged (at 150×g and at room temperature for 15 minutes) immediately after the above measurement to obtain platelet-rich plasma (PRP). The PRP was further centrifuged (at 1,500×g and at room temperature for 15 minutes) to collect platelet-poor plasma (PPP), and the platelet count was regulated with the PRP and PPP so that it might be […] (final level). The PRP was kept at 37° C. for four minutes, then an ADP (adenosine 5′-diphosphate) solution with a final concentration of 3 μM (MC Medical, Inc.) or a collagen solution with a final concentration of 6 μg/mL (Nycomed) was added thereto as an aggregation inducer so as to observe platelet aggregation using a platelet aggregation analyzer (MCM HEMA TRACER 313M from MC Medical, Inc.). The platelet aggregation activity was evaluated on the basis of maximum aggregation rate, and the suppressibility of platelet aggregation was calculated according to the following equation.
# (§2) Aggregation suppressibility (%)={[maximum aggregation rate (mean) in control group]−[maximum aggregation rate (mean) in experimental group]}/[maximum aggregation rate (mean) in control group]×100.
# (§3) The measurement results set forth for each group are each the mean of the values obtained in 8 or 9 cases plus/minus a standard error. The results were compared between the groups using the Tukey-Kramer method for multiple comparison testing, and the statistical significance was confirmed below a set level of 5%.
# [2] = tested on: platelet aggregation induced by collagen; experiment: Collagen-induced platelet aggregation in PRP of orally dosed rabbits (ex vivo); design: species or system Japanese white rabbits; details: collagen 6 μg/mL, clopidogrel 20 mg/kg single oral dose; for Effect on maximum aggregation rate: EPA-E 300 mg/kg oral 4 weeks; for Aggregation suppressibility: EPA-E 300 mg/kg oral once a day 4 weeks, blood 2 h after clopidogrel
# Description: as §1, §2, §3
# [3] = Prothrombin time (PT) in platelet-poor plasma; type: in vivo, Japanese white rabbits; details: vs control group; EPA-E 300 mg/kg oral 4 weeks, clopidogrel 20 mg/kg single oral dose
# Description: (§4) After the preliminary keeping, the rabbits were randomly divided into four groups, namely, control group, EPA-E group, clopidogrel group, and combination group. To the EPA-E group and the combination group, EPA-E was orally administered once a day for four weeks at a dose of 300 mg/kg. To the control group and the clopidogrel group, a 5% aqueous solution of gum arabic was orally administered instead of EPA-E. After the last EPA-E or gum arabic administration, the rabbits were fasted overnight, then clopidogrel was orally administered to the clopidogrel group and the combination group at a single dose of 20 mg/kg. […] Two hours after the clopidogrel administration, blood was sampled using a syringe containing citric acid in an amount of a tenth of the syringe volume, and the white blood cell count, red blood cell count, hemoglobin, hematocrit, and platelet count were measured on an automated hematology analyzer (type F-820 from Sysmex Corporation). […] The platelet aggregation activity was evaluated on the basis of maximum aggregation rate, and the suppressibility of platelet aggregation was calculated according to the following equation. Platelet-poor plasma (PPP) was measured in terms of prothrombin time (PT) and activated partial thromboplastin time (APTT) as coagulation-related parameters. […]
# [4] = Activated partial thromboplastin time (APTT) in platelet-poor plasma; type: in vivo, Japanese white rabbits; details: vs control group; EPA-E 300 mg/kg oral 4 weeks, clopidogrel 20 mg/kg single oral dose
# Description: as §4
# [5] = Bleeding time, ear puncture wound (method of Elg et al.); type: in vivo, Japanese white rabbits; details: rabbit ear puncture; EPA-E 300 mg/kg oral 4 weeks, clopidogrel 20 mg/kg single oral dose
# [6] = Hematological parameters on automated hematology analyzer; type: in vivo, Japanese white rabbits; details: for Hematocrit / Hemoglobin / Platelet count / Red blood cell count / White blood cell count: mean ± standard error, blood 2 h after clopidogrel, EPA-E 300 mg/kg 4 weeks, clopidogrel 20 mg/kg; for Change of white blood cell count, red blood cell count, hemoglobin, hematocrit and platelet count: vs control group
# Description: After the preliminary keeping, the rabbits were randomly divided into four groups, namely, control group, EPA-E group, clopidogrel group, and combination group. To the EPA-E group and the combination group, EPA-E was orally administered once a day for four weeks at a dose of 300 mg/kg. To the control group and the clopidogrel group, a 5% aqueous solution of gum arabic was orally administered instead of EPA-E. After the last EPA-E or gum arabic administration, the rabbits were fasted overnight, then clopidogrel was orally administered to the clopidogrel group and the combination group at a single dose of 20 mg/kg. To the control group and the EPA-E group, the 5% aqueous solution of gum arabic was orally administered instead of clopidogrel. Two hours after the clopidogrel administration, blood was sampled using a syringe containing citric acid in an amount of a tenth of the syringe volume, and the white blood cell count, red blood cell count, hemoglobin, hematocrit, and platelet count were measured on an automated hematology analyzer (type F-820 from Sysmex Corporation). The blood was centrifuged (at 150×g and at room temperature for 15 minutes) immediately after the above measurement to obtain platelet-rich plasma (PRP). […] The platelet aggregation activity was evaluated on the basis of maximum aggregation rate, and the suppressibility of platelet aggregation was calculated according to the following equation. The measurement results set forth for each group are each the mean of the values obtained in 8 or 9 cases plus/minus a standard error. The results were compared between the groups using the Tukey-Kramer method for multiple comparison testing, and the statistical significance was confirmed below a set level of 5%.
SMILES,Aggregation suppressibility [1],Effect on maximum aggregation rate [1],Effect on maximum aggregation rate [2],Aggregation suppressibility [2],PT (prothrombin time) change [3],APTT (activated partial thromboplastin time) change [4],Effect on bleeding time [5],Hematocrit [6],Hemoglobin [6],Platelet count [6],Red blood cell count [6],White blood cell count [6],"Change of white blood cell count, red blood cell count, hemoglobin, hematocrit and platelet count [6]"
"CC/C=C\C/C=C\C/C=C\C/C=C\C/C=C\CCCC(=O)OCC [EPA-E, ethyl icosapentate]",0%,had no influence on the maximum aggregation rate,reduced the maximum aggregation rate significantly in a statistical sense,29%,neither PT (prothrombin time) nor APTT (activated partial thromboplastin time) had a statistically significant change,neither PT (prothrombin time) nor APTT (activated partial thromboplastin time) had a statistically significant change,had no influence on the bleeding time,37.3 ± 0.6%,13.1 ± 0.2 g/dL,30.4 ± 1.2 ×10^4/μL,563 ± 10 ×10^4/μL,58.8 ± 5.2 ×10^2/μL,had not a statistically significant change
"COC(=O)[C@H](c1ccccc1Cl)N1CCc2sccc2C1 [clopidogrel, (+)-(s)-methyl 2-(2-chlorophenyl)-2-(4,5,6,7-tetrahydrothieno[3,2-c]pyridin-5-yl) acetate monosulfate]",29%,reduced the maximum aggregation rate,no differences were seen which were statistically significant,7%,neither PT (prothrombin time) nor APTT (activated partial thromboplastin time) had a statistically significant change,neither PT (prothrombin time) nor APTT (activated partial thromboplastin time) had a statistically significant change,prolonged the bleeding time significantly in a statistical sense,39.3 ± 1.2%,13.8 ± 0.4 g/dL,38.0 ± 2.3 ×10^4/μL,584 ± 17 ×10^4/μL,58.0 ± 4.8 ×10^2/μL,had not a statistically significant change
